Structures are written as SMILES.

The experiment concerns the target T1, Farnesyl-protein transferase (FTase) (Bos taurus, UniProt P29702+P49355).
T1 construct: Farnesyl-protein transferase (FTase) from bovine brain was chromatographed; from tissue; host or cells: bovine brain
Description: In Vitro Inhibition of Ras Farnesyl Transferase (inhibition of Ras-CVLS farnesylation). The class given is biochemical. As to conditions: partially purified bovine brain FTase; Ras-CVLS 3.5 μM, 0.25 μM [3H]FPP. How it is done:
Farnesyl-protein transferase (FTase) from bovine brain was chromatographed on DEAE-Sephacel (Pharmacia, 0-0.8M NaCl gradient elution), N-octyl agarose (Sigma, 0-0.6M NaCl gradient elution), and a mono Q HPLC column (Pharmacia, 0-0.3M NaCl gradient). Ras-CVLS at 3.5 μM, 0.25 μM [^3 H]FPP, and the indicated compounds were incubated with this partially purified enzyme preparation. The FTase inhibitory data presented below is a measurement of the ability of the test compound to inhibit Ras farnesylation in vitro.

With `C=C(C(=O)O)C(CCCCCCCCCCCCCC)C(=O)O` (centres unmarked) [B], the IC50 – broadly, the concentration that gives 50% inhibition – came to 1.7 µM.
As to `CCCCCCCCCCCCCC/C(C(=O)O)=C(/C)C(=O)O` [A], the IC50 worked out at 7.7 µM. This IC50 lies about 4.5-fold higher than the previous one.

For the origin of these results see patent US5260479A, “Inhibitors of farnesyl protein transferase” (Merck & Co., Inc., priority 1991, dated 1993).
